The text below walks through data of PubChem BioAssay AID1996.

A word on the solubility (kinetic): it is the concentration staying in solution when a stock, usually in DMSO, is diluted into the medium.

Values after ≈ are worked out from the molar mass of the structure shown.

For the data set the following is noted: buffer; pH 7.4; 200.0 µM.
In turn, `COc1nc2ccccc2nc1N1CCN(Cc2ccc3c(c2)OCO3)CC1` had a solubility (kinetic) of 2.9 µg/mL (≈ 7.66 µM).
With `O=S(=O)(Nc1cccc2ccccc12)c1cccs1`, the kinetic solubility was 5.1 µg/mL (≈ 17.6 µM).
Under `O=C(COC(=O)c1cccc(S(=O)(=O)NCc2ccccc2)c1)NC1CC1` stands 15.2 µg/mL (≈ 39.1 µM); under `COc1ccc(-c2nc(N)nc(C(F)(F)F)c2-c2cscn2)c(O)c1`, less than 0.2 µg/mL; under `O=C(CNC(=O)c1ccco1)OCc1ccccc1F`, greater than 41.6 µg/mL.
As for `O=C(CC(=O)NCc1ccccc1)NCc1ccccc1`, the kinetic solubility was greater than 42.4 µg/mL.
Under `Cc1ccc(/C=C/C(=O)O)cc1S(=O)(=O)Nc1ccc(C(=O)O)cc1` stands 42.4 µg/mL (≈ 117 µM); under `Cc1ccc(C(=O)N2CCN(c3ncccn3)CC2)c(C)c1`, 27.5 µg/mL (≈ 92.8 µM).
Compound `COC(=O)c1c(C)[nH]c(C(=O)OCC(=O)c2c(N)n(CC(C)C)c(=O)n(C)c2=O)c1C` showed a solubility (kinetic) of 14 µg/mL (≈ 32.2 µM).
With `Cc1[nH]c2ccccc2c1SCC(=O)N1CCCCCC1`, the solubility (kinetic) turned out to be 25.8 µg/mL (≈ 85.3 µM).
Under `COc1ccc(OC)c(CNC(=O)C2CCC(=O)N2C(C)C)c1` (stereo unspecified) stands greater than 48.1 µg/mL; under `Cc1ccccc1CC(=O)N1CCN(C(=O)C2CCCO2)CC1` (stereo unspecified), greater than 47.5 µg/mL; under `CCOc1ccc(NC(=O)CCc2ccc(C)o2)cc1`, 10.5 µg/mL (≈ 38.4 µM).
With `CC(C)(C)C(=O)N1CCN(C(c2ccccc2)c2ccccc2)CC1`, the kinetic solubility stood at 28.3 µg/mL (≈ 84.1 µM).
Take `C=Cn1cc[n+](CC(=O)c2ccc(Br)cc2)c1.[Br-]`: the kinetic solubility is greater than 55.8 µg/mL.
Regarding `COc1ccc(C)cc1NC(=O)C(C)N1CCOCC1.Cl` (stereo unspecified), the solubility (kinetic) is greater than 47.2 µg/mL.
In turn, `CC(Sc1nc2ccccc2[nH]1)C(=O)NC1CCCCC1C` (stereo unspecified) gave a solubility (kinetic) of 14.5 µg/mL (≈ 45.7 µM).
Under `Cn1c(SCc2cccc(Br)c2)nc2ccccc2c1=O` stands less than 0.4 µg/mL; under `CCC(C)n1c(O)c(C=NCc2cccnc2)c(=O)[nH]c1=S` (stereo unspecified), 44.8 µg/mL (≈ 141 µM).
As to `Cl.c1cncc(CNC2CCCC2)c1`, the kinetic solubility is greater than 37.4 µg/mL.
The compound `CNC(=O)CSc1nnc(-c2ccc3c(c2)OCO3)n1C` came in with a solubility (kinetic) greater than 46 µg/mL.
For the compound `COC(=O)c1cc(OCC(=O)Nc2ccc3c(c2)CCC3)cc(C(=O)OC)c1`, the solubility (kinetic) is 3 µg/mL (≈ 7.82 µM).
Compound `COc1ccc(OC)c(N/C(=N/c2nc(C)cc(C)n2)NC(C)=O)c1` came in with a kinetic solubility of 0.6 µg/mL (≈ 1.75 µM).
For `O=C(COC(=O)Cc1ccc(F)cc1)NCCc1ccccc1`, the kinetic solubility is greater than 47.3 µg/mL.
As for `COc1ccc(CNC(=O)c2cc(=O)c3ccccc3o2)cc1`, the figure is 12 µg/mL (≈ 38.8 µM).
`O=C(c1ccc([N+](=O)[O-])cc1)N1CCN(c2cccc3[nH]ccc23)CC1`: the solubility (kinetic) amounted to 50.7 µg/mL (≈ 145 µM).
Compound `O=[N+]([O-])c1ccc(Oc2cccc(C(F)(F)F)c2)nc1` yielded a solubility (kinetic) of 3.5 µg/mL (≈ 12.3 µM).
On to `O=C(CC(=O)c1ccccc1)Nc1ccccn1`, for which the solubility (kinetic) was greater than 36 µg/mL.
Compound `CCN(CC(=O)NCCC1=CCCCC1)S(=O)(=O)c1ccccc1` showed a solubility (kinetic) greater than 52.6 µg/mL.
As to `O=S(=O)(c1ccccc1F)N1CCCc2ccccc21`, the solubility (kinetic) is 11.2 µg/mL (≈ 38.4 µM).
Turning to `CC1=C(C(=O)OCCC(C)C)C(c2ccc3c(c2)OCO3)NC(=O)N1` (stereo unspecified), the kinetic solubility was 6.2 µg/mL (≈ 17.9 µM).
`CCN1CCN(C(=O)c2cc(=O)c3cc(C)ccc3o2)CC1` showed a kinetic solubility greater than 45.1 µg/mL.
As for `CC(C)NC(=O)CC1(C(=O)NCc2ccc(Cl)cc2)CCCC1`, the figure is greater than 50.5 µg/mL.
As for `COc1ccc([N+](=O)[O-])c(OC)c1C(=O)Nc1ccc(F)cc1F`, the figure is 33.9 µg/mL (≈ 100 µM).
Regarding `COc1ccc(NC2CCCN(Cc3cccc4cnccc34)C2)cc1` (stereo unspecified), the kinetic solubility was found to be 49.4 µg/mL (≈ 142 µM).
As for `CN(C)/C=C(\C=O)c1onc(-c2ccccc2Cl)c1C#N`, the solubility (kinetic) came out at 44.8 µg/mL (≈ 148 µM). The solubility kinetic values of the last two compounds are within 1.5-fold of each other.
`Cc1noc(NS(=O)(=O)c2ccc(NC(=O)c3cc4ccccc4o3)cc2)c1C` registered a kinetic solubility of 61.6 µg/mL (≈ 150 µM).
As for `CCc1ccc(NC(=O)C(C)OC(=O)/C=C/c2ccc(O)c(OC)c2)cc1` (stereo unspecified), the figure is 4.1 µg/mL (≈ 11.1 µM).
As for `CCC(=O)Nc1ccc2c(c1)N(C(C)=O)c1ccccc1CC2`, the kinetic solubility was greater than 46.3 µg/mL.
Compound `Cc1ccc(Sc2cc(C)nc(-c3ccccn3)n2)cc1` came in with a kinetic solubility of 36.8 µg/mL (≈ 125 µM).
Under `Cc1sc(NC(=O)C2=COCCO2)c(C(N)=O)c1C` stands greater than 42.3 µg/mL; under `CCNS(=O)(=O)c1ccc(NC(=S)N2CCc3ccccc32)cc1`, 1.2 µg/mL (≈ 3.32 µM).
In the case of `Cc1c(/C=N/O)sc2ccccc12`, the solubility (kinetic) turned out to be 10.8 µg/mL (≈ 56.5 µM).
For the compound `O=C(COC(=O)C1CC1)Nc1ccc(Cl)cn1`, the solubility (kinetic) was greater than 38.2 µg/mL.
Consider `O=C(COC(=O)c1ccc2c(c1)OCCO2)NCc1ccccc1Cl`, for which the solubility (kinetic) amounted to 5.2 µg/mL (≈ 14.4 µM).
As for `CC(C)c1ccc(C(=O)OCC(=O)NC2CCCC2)cc1`, the figure is 11.8 µg/mL (≈ 40.8 µM).
In turn, `CC(Oc1ccc(Cl)cc1)C(=O)NCC1CCCO1` (stereo unspecified) returned a kinetic solubility of 41.5 µg/mL (≈ 146 µM). This solubility kinetic lies about 3.5-fold higher than the previous one.
`COC(=O)Nc1nc2ccc(Sc3ccccc3)cc2[nH]1` showed a kinetic solubility of 0.9 µg/mL (≈ 3.01 µM).
Take `CCOc1ccc(OCC(=O)Nc2ccc(S(N)(=O)=O)cc2)cc1`: the kinetic solubility came out at 7.1 µg/mL (≈ 20.3 µM).
Turning to `CN(CC(=O)Nc1ccc(F)cc1)C(=O)CSc1nnc(Cc2ccccc2)o1`, the kinetic solubility is greater than 62.2 µg/mL.
The compound `COc1cc2c(cc1OC)CN(Cc1ccc(F)cc1)CC2` yielded a solubility (kinetic) of 35.7 µg/mL (≈ 118 µM).
